The term inhibition denotes the relative decrease from the control value, in per cent. The GI50 is the concentration giving 50% growth inhibition. By IC50 is commonly meant the point on the concentration scale where inhibition reaches its midpoint.

Experiment [1] relates to MKN-45. The experiment in a line: Inhibition of MKN-45 proliferation (MTT). As to conditions: Homo sapiens; for inhibition at 0.1 µM: 100 nM, read-out: MKN45 % inhibition @ 100 nM; for GI50: read-out: MKN45 GI50. The class given is cell-based, human. Here is the method: 3. Inhibition of MKN-45 Proliferation:
Cell proliferation assays were carried out using the high Met expressing human gastric adenocarcinoma cell line, MKN-45, according to the following schedule: • Day 1: Cells were plated in 96-well plates in complete growth medium. • Day 2: Compounds at desired concentrations were added. • Day 5: Cell viability was determined using the 3-[4,5-dimethylthiazol-2-yl]-2,5-diphenyltetrazolium bromide (MTT) dye reduction test. Results: The results are as given as % Inhibition of MKN-45 proliferation at 100 nM and GI50 values in Table 4A to 4C above. 4. Inhibition of c-Met Kinase Phosphorylation in MKN-45 Cells: […]

Experiment [2] has as its target T1, human recombinant Met kinase (Homo sapiens, UniProt P08581).
T1 construct: purchased Cell Signalling Technology, Beverly, Mass
Description: Colorimetric determination of c-Met kinase activity (HTScan Met Kinase Assay Kit). As to conditions: read-out: c-Met Enzyme IC50. The class given is biochemical.

The target in experiment [3] is T1, human recombinant Met kinase. The experiment is described as above. Type of experiment: biochemical. The conditions noted are these: for inhibition: cells marked *: tested @ 300 nM, read-out: c-Met Enzyme % inhibition; for inhibition at 0.1 µM: 100 nM (cells without *), read-out: c-Met Enzyme % inhibition @ 100 nM. An excerpt: 1. MET Kinase Assay Protocol:
Colorimetric Determination of c-Met Kinase Activity
The receptor tyrosine kinase c-Met is a heterodimeric transmembrane glycoprotein involved in several cellular processes that aid in tumor progression. Phosphorylation of the tyrosine residues in the c-Met kinase domain is critical for its activity and the resulting down-stream effects. The colorimetric assay allows detection of the phosphorylated form of a biotinylated peptide upon activation of human recombinant Met kinase.
MET Kinase Assay Protocol:
c-Met Kinase activity shall be determined using an HTScan® Met Kinase Assay Kit (Cell Signalling Technology, Beverly, Mass.) with modifications. All incubations are carried out at room temperature. Briefly, 12.5 μl of a 4× reaction cocktail (DTT/Kinase buffer containing appropriate quantity of human Met kinase) is added to each well of a 96-well plate containing 12.5 μl pre-diluted compound of interest and incubated for 5 minutes. After the initial incubation, 25 μl/well of 2×ATP/biotinylated peptide is added and incubated for an additional 30 minutes. The reaction is terminated by the addition of 50 μl/well stop buffer (50 mM EDTA, pH 8.0). The reaction mixture (25 μl/well) is then transferred to a streptavidin coated plate (Perkin Elmer, Cat#4009-0010) containing 75 μl dH2O and incubated for 60 minutes. The plate is washed with 200 μl/well wash buffer (1×PBS, 0.05% Tween-20). After washing, 100 μl/well phospho-tyrosine mAb (1:1000 in wash buffer containing 1% BSA) is added and incubated for 60 minutes. After another round of washes, 100 μl/well europium labelled anti-mouse IgG (1:500 in wash buffer containing 1% BSA) is added and incubated for an additional 30 minutes. Following additional washes, 100 μl/well Delfia^(R) enhancement solution (Perkin Elmer, Cat#1244-105) is added and incubated for 45 minutes. Florescence is measured on a microplate reader (BMG Labtech., Germany) at 340 nm (excitation) and 615 nm (emission) for calculating % inhibition. Data generated can be analyzed further using Graphpad Prism (Graphpad software, San Diego Calif.) for determination of IC50.
Results: The results are as given below in Table 4A, 4B and 4C as % Inhibition or IC50 of c-Met

The mark [4] stands for this setting: MKN-45, Table 4C, MKN-45 proliferation.
[5] abbreviates: MKN-45, Table 4B, MKN-45 proliferation.
The mark [6] stands for this setting: MKN-45, Table 4A, MKN-45 proliferation.

Molecules are shown by their SMILES. Like-named read-outs stand apart in the source and are kept apart here.

T1 sequence (P08581 25-1390): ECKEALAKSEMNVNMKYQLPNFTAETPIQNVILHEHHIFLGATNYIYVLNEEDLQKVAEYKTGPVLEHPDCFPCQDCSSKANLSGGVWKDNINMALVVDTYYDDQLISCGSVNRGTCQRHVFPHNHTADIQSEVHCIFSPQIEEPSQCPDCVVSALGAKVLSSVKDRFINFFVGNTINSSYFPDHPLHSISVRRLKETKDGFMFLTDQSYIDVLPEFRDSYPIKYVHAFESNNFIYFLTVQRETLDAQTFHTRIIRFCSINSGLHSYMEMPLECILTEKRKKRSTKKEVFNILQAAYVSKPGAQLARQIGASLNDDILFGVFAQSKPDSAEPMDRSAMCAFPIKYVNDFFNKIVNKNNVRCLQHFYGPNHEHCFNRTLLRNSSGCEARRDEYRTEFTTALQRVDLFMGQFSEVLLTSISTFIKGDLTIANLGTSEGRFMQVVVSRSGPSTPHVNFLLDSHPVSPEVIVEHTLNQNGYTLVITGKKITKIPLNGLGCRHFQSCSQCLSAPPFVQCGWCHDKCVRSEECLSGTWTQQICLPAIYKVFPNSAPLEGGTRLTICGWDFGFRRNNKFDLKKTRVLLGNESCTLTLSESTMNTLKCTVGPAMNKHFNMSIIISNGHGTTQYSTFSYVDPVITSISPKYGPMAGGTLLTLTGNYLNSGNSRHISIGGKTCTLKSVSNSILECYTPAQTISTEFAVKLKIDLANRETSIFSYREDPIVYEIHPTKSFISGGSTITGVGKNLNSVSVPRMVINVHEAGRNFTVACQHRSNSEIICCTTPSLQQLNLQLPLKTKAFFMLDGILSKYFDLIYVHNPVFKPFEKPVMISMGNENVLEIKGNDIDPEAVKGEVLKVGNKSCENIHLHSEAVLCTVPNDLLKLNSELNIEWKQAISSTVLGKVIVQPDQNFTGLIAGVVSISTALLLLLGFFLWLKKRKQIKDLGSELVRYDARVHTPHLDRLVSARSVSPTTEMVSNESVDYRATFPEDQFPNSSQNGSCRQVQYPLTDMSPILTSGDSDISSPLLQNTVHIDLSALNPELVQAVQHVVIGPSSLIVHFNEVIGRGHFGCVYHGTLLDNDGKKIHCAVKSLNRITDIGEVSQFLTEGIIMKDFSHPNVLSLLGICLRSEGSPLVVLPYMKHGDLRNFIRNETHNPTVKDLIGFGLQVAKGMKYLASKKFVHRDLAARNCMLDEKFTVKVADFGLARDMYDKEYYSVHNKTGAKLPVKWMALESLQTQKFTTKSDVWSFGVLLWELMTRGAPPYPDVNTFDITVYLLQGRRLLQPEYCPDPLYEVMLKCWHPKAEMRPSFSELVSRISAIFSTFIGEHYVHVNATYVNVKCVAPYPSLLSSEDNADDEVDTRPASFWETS

`NC(=O)c1c(F)cc(-c2ccc3nnn(Cc4cc5cccnc5cc4F)c3n2)cc1F` [Example 1007, 2,6-difluoro-4-(3-((7-fluoroquinolin-6-yl)methyl)-3H-[1,2,3]triazolo[4,5-b]pyridin-5-yl)benzamide]: in experiment [1] (setting [4]), the inhibition at 0.1 µM was in the range of 75 to 100% and the GI50 is less than 0.025 µM. Further, the IC50 in experiment [2] (Table 4C) is less than 0.025 µM.

In the case of `NC(=O)c1ccc(-c2ccc3ncn(Cc4c(F)cc5ncccc5c4F)c3n2)cc1Cl` [Example 1023, 2-chloro-4-(3-((5,7-difluoroquinolin-6-yl)methyl)-3H-imidazo[4,5-b]pyridin-5-yl)benzamide], the inhibition in experiment [3] (Table 4C) was in the range of 75 to 100%. Further, in experiment [1] (setting [4]), the inhibition at 0.1 µM lay within 50 to 75% and the concentration for 50% growth inhibition (GI50) was less than 0.025 µM. Moreover, the IC50 in experiment [2] (Table 4C) was less than 0.025 µM.

`NC(=O)c1ccc(-c2ccc3ncn(Cc4ccc5ncccc5c4)c3n2)cc1Cl` [Example 1008, 2-Chloro-4-(3-(quinolin-6-ylmethyl)-3H-imidazo[4,5-b]pyridin-5-yl)benzamide]: the inhibition in experiment [3] (Table 4C) fell in the range of 75 to 100%. Besides, in experiment [1] (setting [4]), the inhibition at 0.1 µM was in the range of 25 to 50% and the GI50 fell in the range of 0.1 to 0.25 µM. In addition, the IC50 in experiment [2] (Table 4C) fell in the range of 0.05 to 0.1 µM.

On to `CN(C)CCNC(=O)c1c(F)cc(-c2ccc3ncn(Cc4ccc5ncccc5c4)c3n2)cc1F` [Example 104, N-(2-(dimethylamino)ethyl)-2,6-difluoro-4-(3-(quinolin-6-ylmethyl)-3H-imidazo[4,5-b]pyridin-5-yl) benzamide], for which the inhibition in experiment [3] (Table 4B) was in the range of 50 to 75%. For the same compound, the inhibition at 0.1 µM in experiment [1] (setting [5]) was less than 25%. Further, the half-inhibitory concentration (IC50) in experiment [2] (Table 4B) fell in the range of 0.1 to 0.25 µM.

For the compound `NC(=O)c1c(F)cc(-c2ccc3nnn(Cc4ccc5ncccc5c4)c3n2)cc1F` [Example 1003, 2,6-difluoro-4-(3-(quinolin-6-ylmethyl)-3H-[1,2,3]triazolo[4,5-b]pyridin-5-yl)benzamide 2,2,2-trifluoroacetate], the inhibition in experiment [3] (Table 4C) lay in the range of 75 to 100%. Besides, the IC50 in experiment [2] (Table 4C) is less than 0.025 µM.

On to `CC(=NO)c1ccc2nnn(Cc3cc4cccnc4cc3F)c2n1` [Example 59, 1-(3-((7-fluoroquinolin-6-yl)methyl)-3H-[1,2,3]triazolo[4,5-b]pyridin-5-yl) ethanone oxime], for which, in experiment [1] (setting [6]), the GI50 was in the range of 0.025 to 0.05 µM. The IC50 in experiment [2] (Table 4A) is 0.025 to 0.05 µM.

As to `NC(=O)c1ccc(-c2ccc3ncn(Cc4cc5cccnc5cc4F)c3n2)cc1Cl` [Example 1022, 2-chloro-4-(3-((7-fluoroquinolin-6-yl)methyl)-3H-imidazo[4,5-b]pyridin-5-yl)benzamide], in experiment [1] (setting [4]), the inhibition at 0.1 µM is 50 to 75% and the GI50 lay within 0.05 to 0.1 µM. Also, the IC50 in experiment [2] (Table 4C) is less than 0.025 µM.

In the case of `COC(=O)N/N=C(\C)c1ccc2nnn(Cc3ccc4ncccc4c3)c2n1` [Example 58, Methyl 2-(1-(3-(quinolin-6-ylmethyl)-3H-[1,2,3]triazolo[4,5-b]pyridin-5-yl)ethylidene)hydrazinecarboxylate], the inhibition in experiment [3] (Table 4A) is less than 25%. In addition, the inhibition at 0.1 µM in experiment [1] (setting [6]) is 25 to 50%.

For `CC(c1ccc2ncccc2c1)n1cnc2ccc(-c3ccc(C(N)=O)c(Cl)c3)nc21` (centres unmarked) [Example 1021, 2-chloro-4-(3-(1-(quinolin-6-yl)ethyl)-3H-imidazo[4,5-b]pyridin-5-yl)benzamide], the inhibition in experiment [3] (Table 4C) was less than 25%. Further, the inhibition at 0.1 µM in experiment [1] (setting [4]) was 25 to 50%.

On to `CCOC(=O)CONC(=O)c1ccc(-c2ccc3nnn(Cc4ccc5ncccc5c4)c3n2)cc1Cl` [Example 29, ethyl 2-(2-chloro-4-(3-(quinolin-6-ylmethyl)-3H-[1,2,3]triazolo[4,5-b]pyridin-5-yl)benzamidooxy)acetate], for which, in experiment [3] (Table 4A), the inhibition at 0.1 µM was in the range of 75 to 100%. Further, in experiment [1] (setting [6]), the inhibition at 0.1 µM is less than 25% and the GI50 lay in the range of 0.1 to 0.25 µM.

`CCNC(=O)c1c(F)cc(-c2ccc3ncn(Cc4ccc5ncccc5c4)c3n2)cc1F` [Example 1016, N-ethyl-2,6-difluoro-4-(3-(quinolin-6-ylmethyl)-3H-imidazo[4,5-b]pyridin-5-yl)benzamide]: the inhibition in experiment [3] (Table 4C) was in the range of 25 to 50%. In experiment [1] (setting [4]), the inhibition at 0.1 µM was less than 25%.

Regarding `NC(=O)CNC(=O)c1ccc(-c2ccc3nnn(Cc4ccc5cccnc5c4)c3n2)cc1` [Example 1, N-(2-amino-2-oxoethyl)-4-(3-(quinolin-7-ylmethyl)-3H-[1,2,3]triazolo[4,5-b]pyridin-5-yl) benzamide], the inhibition at 0.1 µM is 75 to 100% in experiment [3] (Table 4A) and 0% in experiment [1] (MKN-45, Table 4A, cell printed as a number, not a class letter).

As for `NC(=O)CCNC(=O)c1ccc(-c2ccc3nnn(Cc4ccc5ncccc5c4)c3n2)cc1` [Example 3, N-(3-amino-3-oxopropyl)-4-(3-(quinolin-6-ylmethyl)-3H-[1,2,3]triazolo[4,5-b]pyridin-5-yl)benzamide], the inhibition in experiment [3] (Table 4A) was 50 to 75%. Further, in experiment [1] (setting [6]), the 50% growth inhibitory concentration (GI50) lay within 0.1 to 0.25 µM.

As for `O=C(NOCCO)c1ccc(-c2ccc3nnn(Cc4ccc5ncccc5c4)c3n2)cc1C(F)(F)F` [Example 23, N-(2-hydroxyethoxy)-4-(3-(quinolin-6-ylmethyl)-3H-[1,2,3]triazolo[4,5-b]pyridin-5-yl)-2-(trifluoromethyl)benzamide], the inhibition at 0.1 µM in experiment [3] (Table 4A) and in experiment [1] (setting [6]) was 75 to 100% each time. For the same compound, in experiment [1] (setting [6]), the GI50 was 0.05 to 0.1 µM.

As to `C/C(=N\NC(N)=O)c1ccc2ncn(Cc3ccc4ncccc4c3)c2n1` [Example 107, 2-(1-(3-(quinolin-6-ylmethyl)-3H-imidazo[4,5-b]pyridin-5-yl)ethylidene)hydrazinecarboxamide], in experiment [1] (setting [5]), the inhibition at 0.1 µM is less than 25% and the GI50 lay within 0.25 to 1 µM. Further, the IC50 in experiment [2] (Table 4B) fell in the range of 0.1 to 0.25 µM.

As to `CC(C)(O)CONC(=O)c1ccc(-c2ccc3nnn(Cc4ccc5ncccc5c4)c3n2)cc1F` [Example 35, 2-fluoro-N-(2-hydroxy-2-methylpropoxy)-4-(3-(quinolin-6-ylmethyl)-3H-[1,2,3]triazolo[4,5-b]pyridin-5-yl)benzamide], in experiment [3] (Table 4A), the inhibition at 0.1 µM lay in the range of 75 to 100%. Besides, in experiment [1] (setting [6]), the inhibition at 0.1 µM was in the range of 75 to 100% and the GI50 was 0.025 to 0.05 µM.

On to `O=C(NOCCO)c1ccc(-c2ccc3nnn(Cc4ccc5ncccc5c4)c3n2)cc1` [Example 22, N-(2-hydroxyethoxy)-4-(3-(quinolin-6-ylmethyl)-3H-[1,2,3]triazolo[4,5-b]pyridin-5-yl)benzamide], for which the inhibition at 0.1 µM in experiment [3] (Table 4A) was in the range of 75 to 100%; in experiment [1] (setting [6]), 50 to 75%. Also, in experiment [1] (setting [6]), the 50% growth inhibitory concentration (GI50) lay within 0.05 to 0.1 µM.

Consider `CNC(=O)c1ccc(-c2ccc3ncn(Cc4ccc5ncccc5c4)c3n2)cc1Cl` [Example 1017, 2-chloro-N-methyl-4-(3-(quinolin-6-ylmethyl)-3H-imidazo[4,5-b]pyridin-5-yl)benzamide], for which the inhibition in experiment [3] (Table 4C) was 25 to 50%. The inhibition at 0.1 µM in experiment [1] (setting [4]) is less than 25%.

On to `C/C(=N\NC(N)=S)c1ccc2ncn(Cc3ccc4ncccc4c3)c2n1` [Example 108, 2-(1-(3-(quinolin-6-ylmethyl)-3H-imidazo[4,5-b]pyridin-5-yl)ethylidene)hydrazinecarbothioamide], for which the inhibition in experiment [3] (Table 4B) is less than 25%. Moreover, the inhibition at 0.1 µM in experiment [1] (setting [5]) was less than 25%.

For `CC(C)(O)CONC(=O)c1c(F)cc(-c2ccc3nnn(Cc4ccc5ncccc5c4)c3n2)cc1F` [Example 34, 2,6-difluoro-N-(2-hydroxy-2-methylpropoxy)-4-(3-(quinolin-6-ylmethyl)-3H-[1,2,3]triazolo[4,5-b]pyridin-5-yl)benzamide], the inhibition at 0.1 µM in experiment [3] (Table 4A) lay in the range of 75 to 100%. Also, in experiment [1] (setting [6]), the inhibition at 0.1 µM lay in the range of 75 to 100% and the GI50 was 0.025 to 0.05 µM.

The values are drawn from US9815831B2, “3,5-disubstituted-3H-imidazo[4,5-B]pyridine and 3,5-disubstituted-3H-[1,2,3]triazolo[4,5-B] pyridine compounds as modulators of c-Met protein kinases” (Rhizen Pharmaceuticals SA, priority 2012, dated 2017).
